Experimental data taken from ChEMBL document CHEMBL1135386, “Development of potent and selective dipeptidyl peptidase II inhibitors” (Bioorg Med Chem Lett, 2002).

What was measured:
[1] = molecular target: Dipeptidyl peptidase II and dipeptidyl peptidase IV (DPP2 and DPP4) (Homo sapiens) (UniProt P27487+Q9UHL4); experiment: Selectivity index against Dipeptidyl Peptidase IV and Dipeptidyl Peptidase II inhibitory activities; assay type: protein assay
Dipeptidyl peptidase 4 [2] = molecular target: T1, Dipeptidyl peptidase 4 (Homo sapiens, UniProt P27487)
Dipeptidyl peptidase 4 [3] = molecular target: T1, Dipeptidyl peptidase 4; remark: listed apart in the source
Dipeptidyl peptidase 2 [4] = molecular target: T2, Dipeptidyl peptidase 2 (Homo sapiens, UniProt Q9UHL4)
Dipeptidyl peptidase 2 [5] = molecular target: T2, Dipeptidyl peptidase 2; experiment: Inhibitory activity against Dipeptidyl Peptidase II

T1 sequence (P27487 whole entry): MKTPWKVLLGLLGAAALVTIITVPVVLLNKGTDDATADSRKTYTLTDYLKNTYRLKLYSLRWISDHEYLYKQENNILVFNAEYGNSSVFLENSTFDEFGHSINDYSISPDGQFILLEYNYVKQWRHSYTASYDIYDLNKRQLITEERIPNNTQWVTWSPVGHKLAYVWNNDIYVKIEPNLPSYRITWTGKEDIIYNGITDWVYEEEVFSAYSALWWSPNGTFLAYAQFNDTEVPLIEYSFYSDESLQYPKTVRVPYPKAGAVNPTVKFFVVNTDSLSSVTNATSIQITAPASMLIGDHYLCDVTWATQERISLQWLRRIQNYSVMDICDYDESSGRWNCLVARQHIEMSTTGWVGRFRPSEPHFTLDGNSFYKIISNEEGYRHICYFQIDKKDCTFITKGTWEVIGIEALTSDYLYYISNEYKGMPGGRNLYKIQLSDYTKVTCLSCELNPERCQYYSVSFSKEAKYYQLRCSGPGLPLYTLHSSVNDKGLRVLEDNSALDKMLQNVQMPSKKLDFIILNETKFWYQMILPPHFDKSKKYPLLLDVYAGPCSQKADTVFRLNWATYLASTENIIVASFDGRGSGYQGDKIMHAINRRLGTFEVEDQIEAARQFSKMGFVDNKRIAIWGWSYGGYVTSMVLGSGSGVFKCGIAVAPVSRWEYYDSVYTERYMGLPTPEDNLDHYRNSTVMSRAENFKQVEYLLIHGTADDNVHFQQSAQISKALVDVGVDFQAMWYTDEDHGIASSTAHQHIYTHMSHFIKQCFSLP

Row | SMILES | IC50 (Dipeptidyl peptidase 4 [2]) [µM] | also measured
1 | NCCCCC(NC(=O)OCc1ccccc1)C(=O)N1CCCCC1 (configuration not stated) | 135 | SI [1]: 64
2 | NC(CO)C(=O)N1CCCC1 (configuration not stated) | 190 | 
3 | C[C@H](N)C(=S)N1CCCC1 |  | Ki (Dipeptidyl peptidase 4 [3]): 47.6 µM; Ki (Dipeptidyl peptidase 2 [4]): 1.43 µM
4 | NCC(=O)N1CCCC1 | > 1000 | 
5 | CCC(C)C(N)C(=O)N1CCCCC1 (configuration not stated) | 67 | 
6 | NCCCCC(N)C(=O)N1CCCC1 (configuration not stated) | 39 | 
7 | S=C(C1CCCN1)N1CCCC1 (configuration not stated) | > 500 | 
8 | NCC[C@H](N)C(=O)N1CCCCC1 | > 1000 | SI [1]: > 7590
9 | N[C@@H](CC(=O)O)C(=O)N1CCCC1 | 122 | 
10 | N[C@@H](CC1CCCCC1)C(=O)N1CCCCC1 | 217 | 
11 | NC(Cc1ccc(O)cc1)C(=O)N1CCCC1 (configuration not stated) | 14 | 
12 | C[C@H](N)C(=O)N1CCCC1 | 41 | 
13 | C[C@H](N)C(=O)N1CCC[C@H]1C#N |  | IC50 (Dipeptidyl peptidase 2 [5]): 110 µM
14 | NC(Cc1ccccc1)C(=O)N1CCCC1 (configuration not stated) | 21 | 
15 | C[C@H](N)C(=S)N1CCSC1 |  | Ki (Dipeptidyl peptidase 4 [3]): 7.88 µM; Ki (Dipeptidyl peptidase 2 [4]): 0.277 µM
16 | NC(Cc1c[nH]cn1)C(=O)N1CCCC1 (configuration not stated) | 23.2 | 
17 | NC(Cc1c[nH]cn1)C(=O)N1CCCCC1 (configuration not stated) | 213 | 
18 | NCCCCC(N)C(=O)N1CCCCC1 (configuration not stated) | 247 | SI [1]: 154
19 | NC[C@H](N)C(=O)N1CCCCC1 | > 1000 | 
20 | NCCCC(N)C(=O)N1CCCCC1 (configuration not stated) | > 500 | SI [1]: > 1110
21 | NC(=O)CC(N)C(=O)N1CCCC1 (configuration not stated) | 188 | 
